Target: T1, Heparanase (Homo sapiens, UniProt Q9Y251)
T1 sequence (Q9Y251 whole entry): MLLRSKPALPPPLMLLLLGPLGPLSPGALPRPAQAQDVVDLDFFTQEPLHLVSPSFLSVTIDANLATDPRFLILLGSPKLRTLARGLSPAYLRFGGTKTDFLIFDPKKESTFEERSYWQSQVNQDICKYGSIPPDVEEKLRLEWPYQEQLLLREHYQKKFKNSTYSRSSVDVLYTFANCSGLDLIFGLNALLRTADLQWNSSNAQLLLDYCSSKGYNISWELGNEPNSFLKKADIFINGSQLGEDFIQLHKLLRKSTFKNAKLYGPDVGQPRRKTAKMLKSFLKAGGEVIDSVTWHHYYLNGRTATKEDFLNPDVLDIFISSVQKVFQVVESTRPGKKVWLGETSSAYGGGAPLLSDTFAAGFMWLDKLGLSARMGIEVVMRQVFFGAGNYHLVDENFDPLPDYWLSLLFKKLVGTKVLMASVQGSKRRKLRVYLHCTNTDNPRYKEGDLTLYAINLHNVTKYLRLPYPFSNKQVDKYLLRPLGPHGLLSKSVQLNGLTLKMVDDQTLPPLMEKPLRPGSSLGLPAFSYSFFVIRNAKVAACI
Experiment: Inhibition of recombinant human heparanase incubated for 4 hrs by beta-scintillation counter analysis

O=S(=O)(O)OC[C@H]1O[C@H](O[C@H]2[C@H](OS(=O)(=O)O)[C@H](OS(=O)(=O)O)C(C3O[C@H](COS(=O)(=O)O)[C@@H](O[C@H]4O[C@H](COS(=O)(=O)O)[C@@H](O[C@H]5O[C@H](COS(=O)(=O)O)[C@@H](OS(=O)(=O)O)[C@H](OS(=O)(=O)O)[C@@H]5OS(=O)(=O)O)[C@H](OS(=O)(=O)O)[C@@H]4OS(=O)(=O)O)[C@H](OS(=O)(=O)O)[C@@H]3OS(=O)(=O)O)O[C@@H]2COS(=O)(=O)O)[C@@H](OS(=O)(=O)O)[C@@H](OS(=O)(=O)O)[C@@H]1O[C@H]1O[C@H](COS(=O)(=O)O)[C@@H](OS(=O)(=O)O)[C@H](OS(=O)(=O)O)[C@@H]1OS(=O)(=O)O (stereo partly specified)
IC50: 5 nM

From BindingDB's records for PubMed 32222663 (n/a, 2020)
